Assay results as given in the NIST ThermoML archive (doi:10.1016/j.jct.2018.12.019).

Tests used:
[1] = excess molar enthalpy (molar enthalpy of mixing); xn = mol fraction of the nth substance listed; details: 298.15 K, 98 kPa, Liquid, Calvet calorimetry
[2] = xn = mol fraction of the nth substance listed; details: 98 kPa, Liquid; for speed of sound: Frequency=3 MHz, Single path-length method; for mass density: Vibrating tube method

Cn1ccnc1 [1-methylimidazole] + CCO
[1]
Details	excess molar enthalpy [kcal/mol]
x1 = 0.0523	-0.0449
x1 = 0.1012	-0.0853
x1 = 0.2013	-0.15
x1 = 0.3057	-0.194
x1 = 0.4037	-0.23
x1 = 0.5087	-0.239
x1 = 0.5987	-0.199
x1 = 0.7146	-0.152
x1 = 0.8003	-0.105
x1 = 0.8861	-0.0619
x1 = 0.9463	-0.0344
x1 = 1	0

[2]
Details	mass density, 288.15 K [kg/m3]	mass density, 298.15 K [kg/m3]	mass density, 308.15 K [kg/m3]	mass density, 318.15 K [kg/m3]	mass density, 328.15 K [kg/m3]	speed of sound, 288.15 K [m/s]	speed of sound, 298.15 K [m/s]	speed of sound, 308.15 K [m/s]	speed of sound, 318.15 K [m/s]	speed of sound, 328.15 K [m/s]
x1 = 0.0511	812.59	803.97	795.24	786.37	777.3	1210.6	1176.2	1141.9	1108	1074.3
x1 = 0.1012	829.84	821.16	812.37	803.49	794.35	1240.8	1206.2	1171.7	1137.5	1103.7
x1 = 0.2006	861.64	852.87	844	835.02	825.9	1296.9	1261.9	1227	1192.5	1158.3
x1 = 0.3012	891.28	882.45	873.53	864.53	855.41	1350	1314.7	1279.5	1244.6	1210.1
x1 = 0.3955	916.81	907.94	899	889.99	880.88	1396.8	1361.2	1325.7	1290.5	1255.7
x1 = 0.5	942.71	933.82	924.87	915.86	906.77	1445.7	1409.8	1373.8	1338.3	1303
x1 = 0.5994	965.25	956.36	947.41	938.4	929.34	1489.5	1453	1416.7	1380.7	1345.1
x1 = 0.7066	987.5	978.61	969.67	960.68	951.65	1533	1496.1	1459.3	1423	1386.9
x1 = 0.8063	1006.58	997.7	988.78	979.82	970.81	1570.7	1533.5	1496.3	1459.6	1423.3
x1 = 0.902	1023.35	1014.49	1005.59	996.65	987.68	1603.2	1565.8	1528.4	1491.4	1454.8
x1 = 0.9505	1031.47	1022.63	1013.75	1004.83	995.88	1619	1581.5	1544	1507	1470.2
x1 = 1	1039.36	1030.52	1021.66	1012.76	1003.83	1634.1	1596.5	1559	1521.8	1485

Cn1ccnc1 [1-methylimidazole] + CCCO
[1]
Details	excess molar enthalpy [kcal/mol]
x1 = 0.05	-0.032
x1 = 0.101	-0.0624
x1 = 0.193	-0.112
x1 = 0.2923	-0.151
x1 = 0.3845	-0.179
x1 = 0.4985	-0.188
x1 = 0.5962	-0.179
x1 = 0.7004	-0.147
x1 = 0.8026	-0.106
x1 = 0.8897	-0.0564
x1 = 0.9463	-0.0311
x1 = 1	0

[2]
Details	mass density, 288.15 K [kg/m3]	mass density, 298.15 K [kg/m3]	mass density, 308.15 K [kg/m3]	mass density, 318.15 K [kg/m3]	mass density, 328.15 K [kg/m3]	speed of sound, 288.15 K [m/s]	speed of sound, 298.15 K [m/s]	speed of sound, 308.15 K [m/s]	speed of sound, 318.15 K [m/s]	speed of sound, 328.15 K [m/s]
x1 = 0.0507	820.94	812.86	804.67	796.32	787.79	1261.9	1227.2	1192.8	1158.7	1124.9
x1 = 0.1042	834.73	826.55	818.26	809.85	801.26	1284.5	1249.6	1214.9	1180.6	1146.6
x1 = 0.2018	859.55	851.23	842.82	834.3	825.64	1324.6	1289.5	1254.5	1219.9	1185.7
x1 = 0.301	884.11	875.67	867.16	858.56	849.84	1364.2	1329	1293.8	1259	1224.5
x1 = 0.4047	909.21	900.68	892.08	883.41	874.64	1405.6	1370.1	1334.7	1299.7	1265
x1 = 0.5076	933.32	924.7	916.03	907.3	898.5	1446.2	1410.4	1374.6	1339.2	1304.2
x1 = 0.6006	954.58	945.89	937.17	928.39	919.55	1483.1	1447	1410.8	1375.1	1339.7
x1 = 0.7029	977.37	968.62	959.84	951.01	942.13	1523.8	1487.2	1450.6	1414.4	1378.5
x1 = 0.8027	999.22	990.42	981.59	972.72	963.81	1564.5	1527.3	1490.2	1453.5	1417.2
x1 = 0.903	1020.12	1011.3	1002.44	993.55	984.62	1602	1564.6	1527.1	1490.1	1453.4
x1 = 0.9532	1030.34	1021.51	1012.64	1003.74	994.81	1620.1	1582.6	1545.1	1507.9	1471.1
x1 = 1	1039.36	1030.52	1021.66	1012.76	1003.83	1634.1	1596.5	1559	1521.8	1485
